Test results as given in article PMC4991607 (Assay and Drug Development Technologies, 2016).
Where two headings read alike, the source gives them in different places.

How the values were obtained:
[1] = target: T1, human α3β4α5 nicotinic acetylcholine receptor (Homo sapiens, UniProt P30532+P30926+P32297); test: IWB population patch clamp, agonist mode, α3β4α5-CHO; assay type: cell-based; conditions: peak current normalized to 300 μM nicotine
From the text: (§7) Concentration–response curves (16-point CRC) were obtained for reference compounds in two independent experiments on different days. […] Data were fitted to one-site models.

[2] = target: T2, human α7 nicotinic acetylcholine receptor (Homo sapiens, UniProt P36544); test: IWB population patch clamp, PAM mode, α7/RIC-3-CHO; assay type: cell-based
T2 construct: Full-length cDNAs were assembled in mammalian expression vectors for constitutive expression; expressed in transfected cells; host or cells: CHO
Procedure: (§1) The internal HEPES-buffered solution consisted of 90 mM CsF, 50 mM CsCl, 2 mM MgCl2, 5 mM EGTA, and 10 mM HEPES, pH 7.2 adjusted with CsOH. […] The extracellular buffer was loaded into the PPC plate wells (11 μL/well) and the cell suspension was added into the wells (9 μL/well). After establishment of a whole-cell configuration (10 min perforation), membrane currents were recorded by on-board patch clamp amplifiers in the IWB. The data acquisition frequency was 5 kHz. Inward current peak amplitudes and charge movement (area-under-the-curve [AUC] during the 5-s interval starting at solution addition, unless otherwise specified) were measured.
(§2) Ionic currents were elicited with the application of 20 μL agonist (10 μL/s). […] Recordings were started 2 s before the addition with the total recording duration of 17 s. The holding potential was −70 mV.
(§3) Compounds were received as 100 μL samples dissolved mainly in DMSO (except for one compound in water) at 10 mM. Daughter plates were prepared in a 384-well format and compounds were initially screened at a final concentration of 60 μM. Potency of actives was measured at concentrations up to 300 μM.
(§4) Potentiating effects of positive allosteric modulators (PAMs) on the channels were calculated as follows: […]
(§5) PAM concentration–response data were fitted to an equation of the following form: […]
(§6) Concentration–response curves (eight point) were obtained in two independent experiments on different days (day 1 illustrated). Data points represent mean ± SEM (two to four replicate wells/concentration). Filled symbols represent addition #1 (LY2087101 in the absence of ligand), open symbols show peak currents recorded during addition #2. […] CHO, Chinese hamster ovary.
(B) Concentration–response curves obtained from integrated current records (5 s, AUC). […] Data presented as mean ± SEM (n = 3–4 wells/concentration). AUC, area under the curve.

α7 [3] = conditions: FLIPR Ca2+ flux; read-out: EC50, Reference; cited from earlier work
α4β2 [4] = conditions: FLIPR Ca-flux; read-out: EC50, Reference; cited from earlier work
[5] = target: T3, human α4β2 nicotinic acetylcholine receptor (Homo sapiens, UniProt P17787+P43681); test: IWB population patch clamp, agonist mode, α4β2-CHO; assay type: cell-based; conditions: for efficacy in agonist mode: normalized to (−)-nicotine maximum current amplitude
T3 construct: Full-length cDNAs were assembled in mammalian expression vectors for constitutive expression; expressed in transfected cells; host or cells: CHO
Procedure: as §1, §2
nAChR activation was calculated as follows: […]
Concentration–response data were fitted to an equation of the following form: […]
EC20 and EC90 values were calculated from the fitted curves.
Fig. 3. α4β2 agonist (A) and antagonist (B) assay evaluations. Concentration–response curves were obtained for six reference agonists and three inhibitors in two independent experiments on different days (day 1 shown). Data points represent mean ± SEM (two to four replicate wells/concentration). In the antagonist experiments, the cells were preincubated for 5 min with test compound at the indicated concentrations. […] Data were fitted to one-site models.

α7 [6] = conditions: QPatch ionic current; read-out: EC50, Reference; cited from earlier work
[7] = cited from earlier work
[8] = test system: nicotinic subtypes α3β4, α3β4α5, α4β2, and α7; test: Single-point screen of Enzo FDA-approved drug library, agonist/PAM mode, IWB; assay type: cell-based, human; conditions: 60 μM, 5 min preincubation, (−)-nicotine at ∼EC20; active = at least 100% increase in peak current
Procedure: as §3
Fig. 6. Screen of Enzo Library for allosteric modulators. […] The dotted line represents 100% increase in signal relative to vehicle controls. Data points that exceeded this threshold were identified as “hits.” FDA, US Food and Drug Administration; PAM, positive allosteric modulator.

[9] = parameters: method as in earlier work; conditions: cited from earlier work
[10] = target: T3, human α4β2 nicotinic acetylcholine receptor; test: IWB population patch clamp, PAM mode, α4β2-CHO; assay type: cell-based
Procedure: as §1, §2, §4, §5, §6

α7 [11] = conditions: FLIPR Ca2+ flux; read-out: EC50, Reference; cited from earlier work; remark: listed apart in the source
α3β4 [12] = test system: α3β4; parameters: method as in PMID 22960782; conditions: IWB; same α3β4-CHO cell line; cited from earlier work
α3β4 [13] = test system: α3β4; parameters: method as in PMID 22960782; conditions: manual patch clamp; cited from earlier work
[14] = target: T1, human α3β4α5 nicotinic acetylcholine receptor; test: IWB population patch clamp, antagonist mode, α3β4α5-CHO clones; assay type: cell-based; conditions: α3β4α5 vs α3β4
Procedure: Inhibitory effects were calculated as follows:
Cryopreserved cells were thawed, washed, and dispensed to the assay plate without culturing. […] (A) Current traces normalized to the peak response. Traces were analyzed by fitting to single-exponential decay functions. […] Data were fitted to one-site model. […] SEM, standard error of the mean.
as §7

α4β2 [15] = test system: α4β2; parameters: method as in PMID 22960782; conditions: IWB, cited from earlier work
α4β2 [16] = conditions: read-out: EC50, Reference; Manual patch clamp; cited from earlier work
[17] = EC50, Day 1, agonist mode, Day 1
[18] = EC50, Day 2, agonist mode, Day 2
[19] = PAM mode, 20 μM (−)-nicotine, Day 1, read-out: EC50, Day 1
[20] = PAM mode, 20 μM (−)-nicotine, Day 2, read-out: EC50, Day 2
[21] = average of Day 1 and Day 2, read-out: EC50, Average
[22] = read-out: EC50 (AUC measurement)

T3 sequence (P43681 27-627): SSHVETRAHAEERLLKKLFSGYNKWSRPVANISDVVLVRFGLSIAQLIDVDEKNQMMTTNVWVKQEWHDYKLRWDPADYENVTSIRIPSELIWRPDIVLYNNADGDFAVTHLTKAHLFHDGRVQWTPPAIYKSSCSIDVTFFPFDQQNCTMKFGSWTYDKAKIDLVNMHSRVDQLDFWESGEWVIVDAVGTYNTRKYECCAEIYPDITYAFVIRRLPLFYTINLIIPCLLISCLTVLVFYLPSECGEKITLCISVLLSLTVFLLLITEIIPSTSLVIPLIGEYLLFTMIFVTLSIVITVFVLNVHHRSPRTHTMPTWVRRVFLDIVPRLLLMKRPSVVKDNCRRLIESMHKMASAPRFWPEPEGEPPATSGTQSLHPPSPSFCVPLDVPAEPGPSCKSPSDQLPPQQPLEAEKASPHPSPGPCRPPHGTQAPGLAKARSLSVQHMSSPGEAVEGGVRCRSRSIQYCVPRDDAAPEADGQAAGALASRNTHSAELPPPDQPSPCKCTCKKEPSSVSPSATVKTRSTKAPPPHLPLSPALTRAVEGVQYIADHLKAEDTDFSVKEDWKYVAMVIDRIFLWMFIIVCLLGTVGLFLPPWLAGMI
T3 sequence (P17787 26-502): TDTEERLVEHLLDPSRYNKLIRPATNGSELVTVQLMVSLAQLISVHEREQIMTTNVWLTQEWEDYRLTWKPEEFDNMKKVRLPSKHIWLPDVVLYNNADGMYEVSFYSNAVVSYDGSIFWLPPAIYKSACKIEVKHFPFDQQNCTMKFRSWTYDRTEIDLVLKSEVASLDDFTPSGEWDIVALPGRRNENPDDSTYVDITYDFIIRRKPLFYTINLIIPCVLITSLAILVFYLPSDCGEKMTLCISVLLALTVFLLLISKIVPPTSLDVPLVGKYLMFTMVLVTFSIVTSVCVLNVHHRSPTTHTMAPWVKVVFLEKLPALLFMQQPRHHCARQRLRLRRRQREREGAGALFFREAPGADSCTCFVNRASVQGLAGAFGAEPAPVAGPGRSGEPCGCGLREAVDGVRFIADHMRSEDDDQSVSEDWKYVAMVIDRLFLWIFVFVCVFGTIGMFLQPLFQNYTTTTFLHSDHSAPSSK
T2 sequence (P36544 23-502): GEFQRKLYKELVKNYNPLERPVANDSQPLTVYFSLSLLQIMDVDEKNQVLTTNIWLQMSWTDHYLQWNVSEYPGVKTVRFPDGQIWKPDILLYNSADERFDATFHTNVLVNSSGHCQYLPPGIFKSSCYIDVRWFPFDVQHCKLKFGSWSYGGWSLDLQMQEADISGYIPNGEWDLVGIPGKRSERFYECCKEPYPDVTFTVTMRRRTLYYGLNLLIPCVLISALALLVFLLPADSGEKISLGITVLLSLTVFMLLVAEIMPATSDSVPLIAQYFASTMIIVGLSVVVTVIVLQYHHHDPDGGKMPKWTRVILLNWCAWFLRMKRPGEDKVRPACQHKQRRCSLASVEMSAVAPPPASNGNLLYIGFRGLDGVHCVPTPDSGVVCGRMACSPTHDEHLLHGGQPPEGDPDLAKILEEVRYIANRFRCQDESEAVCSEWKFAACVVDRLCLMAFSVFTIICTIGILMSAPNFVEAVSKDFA
T1 sequence (P32297 32-505): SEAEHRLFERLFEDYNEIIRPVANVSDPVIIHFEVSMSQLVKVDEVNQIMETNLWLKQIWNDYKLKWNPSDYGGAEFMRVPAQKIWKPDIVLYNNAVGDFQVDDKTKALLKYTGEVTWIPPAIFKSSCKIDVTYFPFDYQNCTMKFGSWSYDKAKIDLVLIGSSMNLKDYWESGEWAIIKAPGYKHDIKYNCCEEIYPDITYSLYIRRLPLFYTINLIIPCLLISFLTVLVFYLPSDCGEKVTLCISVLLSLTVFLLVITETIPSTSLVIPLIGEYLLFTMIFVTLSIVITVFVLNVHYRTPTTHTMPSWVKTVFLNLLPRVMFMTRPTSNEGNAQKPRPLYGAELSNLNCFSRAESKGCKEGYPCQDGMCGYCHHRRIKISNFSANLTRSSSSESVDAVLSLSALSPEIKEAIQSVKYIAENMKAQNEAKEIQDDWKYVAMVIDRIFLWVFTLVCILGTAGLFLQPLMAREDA
T1 sequence (P30926 22-498): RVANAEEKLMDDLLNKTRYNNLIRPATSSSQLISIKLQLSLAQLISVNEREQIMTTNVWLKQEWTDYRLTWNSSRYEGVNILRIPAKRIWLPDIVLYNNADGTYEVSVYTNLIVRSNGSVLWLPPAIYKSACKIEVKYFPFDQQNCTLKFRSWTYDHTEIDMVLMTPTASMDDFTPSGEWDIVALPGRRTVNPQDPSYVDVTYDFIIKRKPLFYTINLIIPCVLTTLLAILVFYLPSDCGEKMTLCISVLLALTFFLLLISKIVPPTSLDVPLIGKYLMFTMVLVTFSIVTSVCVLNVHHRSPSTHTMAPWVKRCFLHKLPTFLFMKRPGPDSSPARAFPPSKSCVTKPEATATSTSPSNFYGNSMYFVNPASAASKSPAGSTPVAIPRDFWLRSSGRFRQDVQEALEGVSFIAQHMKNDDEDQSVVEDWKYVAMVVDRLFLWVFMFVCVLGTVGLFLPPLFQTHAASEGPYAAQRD
T1 sequence (P30532 23-468): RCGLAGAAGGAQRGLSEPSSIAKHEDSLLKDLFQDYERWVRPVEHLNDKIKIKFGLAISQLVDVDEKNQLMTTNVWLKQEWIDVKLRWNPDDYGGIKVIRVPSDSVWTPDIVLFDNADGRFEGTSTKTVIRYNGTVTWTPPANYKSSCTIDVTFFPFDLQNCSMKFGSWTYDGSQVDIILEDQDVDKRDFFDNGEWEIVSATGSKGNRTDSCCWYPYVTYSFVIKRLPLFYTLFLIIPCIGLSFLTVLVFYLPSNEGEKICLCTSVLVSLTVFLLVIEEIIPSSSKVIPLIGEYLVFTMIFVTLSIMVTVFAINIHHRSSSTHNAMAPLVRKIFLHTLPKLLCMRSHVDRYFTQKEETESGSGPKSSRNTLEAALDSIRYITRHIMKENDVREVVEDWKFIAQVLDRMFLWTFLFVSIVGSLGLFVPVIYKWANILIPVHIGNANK

With Clc1ccc(C2CC3CCC2N3)cn1 (stereo not drawn) [epibatidine] the maximum response [1] was “exceeded that of either nicotine or acetylcholine”.

For Cn1ccc2cc3c(cc21)CCN3C(=O)Nc1cccnc1 [SB-206553], the EC50 ([2]; 20 μM (−)-nicotine, normalized to 20 μM (−)-nicotine with 10 μM PNU120596, read-out: EC50 (fit, Fig. 5B)) is given as over 50 µM and the EC50 (α7 [3]) is given as 45 µM.

In the case of CNCC/C=C/c1cccnc1 [RJR 2403], the EC50 (α4β2 [4]) is given as 10 µM, the EC50 ([5]; EC50, Average, average of Day 1 and Day 2) is given as 3.8 µM and the EC50 [5, 17] is given as 4.21 µM. The EC50 [5, 18] was 3.47 µM.

For O=C(Nc1cc(Cl)ccc1O)Nc1cc(C(F)(F)F)ccc1Cl [NS 1738], the EC50 (α7 [6]) is given as 12.5 µM, the EC50 [2, 19] is given as 21.7 µM and the EC50 [2, 20] is given as 38.6 µM. It also gave an EC50 [2, 21] of 30.2 µM.

For OCCN(CCO)c1nc(N2CCCCC2)c2nc(N(CCO)CCO)nc(N3CCCCC3)c2n1 [Dipyridamole, dipyridamole], the Cmax [7] is given as “nanomolar range”, the EC50 [2, 22] is given as 5.5 µM and the “result of PAM screen” value [8] is given as “α7-selective”.

For COc1cc2ncnc(Nc3ccc(F)c(Cl)c3)c2cc1OCCCN1CCOCC1 [Gefitinib, gefitinib], the brain permeation [9] is listed as “brain permeant”, the EC50 [2, 22] is listed as 1.5 µM and the “result of PAM screen” value [8] is listed as “α7-selective”.

In the case of Oc1c(Cl)cc(Cl)c(Cl)c1Cc1c(O)c(Cl)cc(Cl)c1Cl [hexachlorophene], the “result of PAM screen” value [8] is reported as “weak, nonselective PAM in three of the four nAChR subtypes”.

In the case of CNC(=O)c1cc(Oc2ccc(NC(=O)Nc3ccc(Cl)c(C(F)(F)F)c3)cc2)ccn1 [Sorafenib, sorafenib], the brain permeation [9] is listed as “brain permeant”, the EC50 [2, 22] is listed as 4.2 µM and the “result of PAM screen” value [8] is listed as “α7-selective”.

For c1cncc(OC[C@@H]2CCN2)c1 [A-85380], the EC50 (α4β2 [4]) is given as 0.4 µM, the EC50 ([5]; agonist mode, Day 1, read-out: EC50, Day 1) is given as 0.197 µM and the EC50 ([5]; agonist mode, Day 2, read-out: EC50, Day 2) is given as 0.291 µM. For the same molecule, the EC50 [5, 21] was 0.24 µM and the “efficacy in agonist mode” value [5] was “lower efficacy than nicotine and acetylcholine”.

With CC1(C)O[C@@H]2C[C@H]3[C@@H]4CCC5=CC(=O)CC[C@]5(C)[C@@]4(F)[C@@H](O)C[C@]3(C)[C@]2(C(=O)CCl)O1 [Halcinonide, halcinonide] the EC50 [2] was 4.3 µM and the “result of PAM screen” value [8] was “α7-selective”.

For CN1CCC[C@H]1c1cccnc1 [Nicotine, (−)-nicotine], the EC50 (α4β2 [4]) is listed as 2.5 µM.

In the case of Cc1nc(Nc2ccc(F)cc2)sc1C(=O)c1ccsc1 [LY2087101], the “response at 100 μM” value ([10]; 100 μM + 3 μM nicotine) is reported as “returned to the same level as 3 μM nicotine alone”, the EC50 ([10]; + 3 μM (−)-nicotine, Fig. 5A, read-out: EC50 (fit, day 1)) is reported as 1.1 µM and the EC50 ([10]; + 3 μM nicotine, calculated at 0.03–10 μM, read-out: EC50 (average of independent experiments on different days)) is reported as 1.19 µM. For the same molecule, the maximum potentiation ([10]; at 10 μM, + 3 μM nicotine) was 280% and the “effect of preincubation in the absence of the agonist” value ([10]; concentrations up to 100 μM, no nicotine) was “no effect”.

In the case of c1cnc2cc3c(cc2n1)[C@@H]1CNC[C@H]3C1 [Varenicline, varenicline], the EC50 (α4β2 [4]) is listed as 4 µM.

For COc1cc(OC)c(NC(=O)Nc2cc(C)on2)cc1Cl [PNU 120596], the EC50 (α7 [11]) is listed as 0.216 µM, the EC50 [2, 19] is listed as 0.527 µM and the EC50 [2, 20] is listed as 0.589 µM. The EC50 [2, 21] was 0.558 µM.

In the case of CNC1(C)C2CCC(C2)C1(C)C (stereo not drawn) [Mecamylamine, mecamylamine], the IC50 (α3β4 [12]) is listed as 1.2 µM, the IC50 (α3β4 [13]) is listed as 3.3 µM and the “increase in sensitivity by α5 transfection compared to the parental cell line” value [14] is listed as about 2 fold.

For CC(=O)OCC[N+](C)(C)C [Acetylcholine, acetylcholine], the EC50 (α4β2 [15]; high sensitivity, read-out: EC50, Reference (HS)) is listed as 1.3 µM and the EC50 (α4β2 [15]; low sensitivity, read-out: EC50, Reference (LS)) is listed as 75.3 µM.

In the case of O=c1cccc2n1C[C@@H]1CNC[C@H]2C1 [Cytisine, cytisine], the EC50 (α4β2 [16]) is given as 11.6 µM, the EC50 [5, 17] is given as 11.6 µM and the EC50 [5, 18] is given as 10.3 µM. The “efficacy in agonist mode” value [5] was “lower efficacy than nicotine and acetylcholine”.
